Laboratory results published in patent US6664244B1, “Pet foods” (Nihon Shokuhin Kako Co., Ltd., priority 1998, dated 2003).

What was measured:
[1] = system: beagles; assay: Experiments on suppression of obesity (body weight change, high-fat feed); format: in vivo; details: healthy beagles; Hills c/d Dry 200 g + lard 117 g basic feed, corn starch replaced with 23.4 g β-CD; about 400 kcal per metabolic body weight per day; vs reference group (FIG. 1)
Experimental: Ten healthy beagles were divided in 2 groups consisting of 5, respectively. Hills c/d Dry were fed for 1 week before the experiment. As for feeds in this experiment, the one in which 200 g of Hills c/d Dry blended with 117 g of lard was used as a basic feed. In the reference group, the one in which 34 g of cornstarch was added to the above basic feed is used. In the experimental group, the feed used is the same one as used in the reference group except that all corn starch was replaced with 23.4 g of β-CD (β-cyclodextrin). The feeding amount for one dog, per day, was controlled without changing the ratio of components so that the amount of the basic feed (Hills c/d Dry and lard) is about 400 kcal per metabolic body weight (kg0.75)

[2] = system: beagles; assay: Experiments on solution of obesity (body weight change in obese beagles); format: in vivo; details: beagles made obese by 2 months of high-energy foods; feed with 23.4 g corn starch replaced with β-CD; about 275 kcal per metabolic body weight per day (FIG. 2)
Source text: Ten beagles were fed high-energy foods for 2 months before the experiment, so that they became obese. At the beginning of the experiment, they were divided in […] so as to make uniform the average body weight of each group as much as possible. The feed used in the reference group was the same as that of Experiment 1 and the same feed in which 23.4 g of corn starch was replaced with β-CD was used in the β-CD group. The feeding amount for one dog, per day was controlled without changing the ratio of components so that the amount of the basic feed (Hills c/d Dry and lard) is about 275 kcal per metabolic body weight (kg0.75).

OC[C@H]1O[C@@H]2O[C@H]3[C@H](O)[C@@H](O)[C@@H](O[C@H]4[C@H](O)[C@@H](O)[C@@H](O[C@H]5[C@H](O)[C@@H](O)[C@@H](O[C@H]6[C@H](O)[C@@H](O)[C@@H](O[C@H]7[C@H](O)[C@@H](O)[C@@H](O[C@H]8[C@H](O)[C@@H](O)[C@@H](O[C@H]1[C@H](O)[C@H]2O)O[C@@H]8CO)O[C@@H]7CO)O[C@@H]6CO)O[C@@H]5CO)O[C@@H]4CO)O[C@@H]3CO [β-CD, β-cyclodextrin]
increase of body weight [1]: significantly suppressed | body weight [2]: significantly reduced
